For 43 compounds, IC50 results are on record in patent US8664257B2, “Oxygen-substituted 3-heteroaroylamino-propionic acid derivatives and their use as pharmaceuticals” (Sanofi, priority 2010, dated 2014).

In one assay the target is T1, Recombinant human cathepsin A (Homo sapiens, UniProt P10619).
T1 construct: Recombinant human cathepsin A (residues 29-480, with a C-terminal 10-His tag); 10-His (C); purchased R&D Systems 1049-SE
T1 sequence (P10619 29-312 limits assumed): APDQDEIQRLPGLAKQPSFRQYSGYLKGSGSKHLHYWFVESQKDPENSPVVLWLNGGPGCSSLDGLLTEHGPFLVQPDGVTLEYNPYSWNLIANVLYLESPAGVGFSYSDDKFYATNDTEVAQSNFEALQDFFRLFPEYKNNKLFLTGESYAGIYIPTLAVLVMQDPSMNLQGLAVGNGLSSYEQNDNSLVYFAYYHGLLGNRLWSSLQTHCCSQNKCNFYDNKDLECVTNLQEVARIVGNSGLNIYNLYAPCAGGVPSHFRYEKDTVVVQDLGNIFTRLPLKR
T1 sequence (P10619 327-480 limits assumed): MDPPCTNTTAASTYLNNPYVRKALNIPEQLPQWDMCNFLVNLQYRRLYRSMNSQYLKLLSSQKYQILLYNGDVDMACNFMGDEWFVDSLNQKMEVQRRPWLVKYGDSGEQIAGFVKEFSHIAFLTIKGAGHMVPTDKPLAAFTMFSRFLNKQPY
Kind of assay: Cathepsin A inhibitory activity. Format: biochemical. To be noted: pharmacological test "Cathepsin A inhibitory activity"; IC50 given as class A/B/C; read-out: Activity (2): Cathepsin A inhibitory activity, IC50 class. In a few lines: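 Read-out was microfluidic separation of cleaved vs. uncleaved Bodipy FL-bradykinin (2 μM), giving turnover, % inhibition and IC50. Compound and 833 ng/ml enzyme met for 15 min RT in pH 5.5 MES/DTT before substrate (15 min RT). The 29-480 His-tagged human enzyme was first activated by cathepsin L, then E-64 (10 μM).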
Regarding `O=C(O)CC(NC(=O)c1cc(O)n(-c2ccccc2Cl)n1)c1ccc(Cl)c(Cl)c1` (stereo not drawn) [Example 227], the IC50 (commonly the concentration at which inhibition is half-maximal) was 0.1 to 1 µM.
For `O=C(O)CC(NC(=O)c1cc(O)n(-c2cccc(Cl)c2)n1)c1cccc(Cl)c1Cl` (stereo not drawn) [Example 257], the IC50 is 0.1 to 1 µM.
Still for that read-out and setting: with `O=C(O)CC(NC(=O)c1cc(O)n(-c2ccccc2F)n1)c1cccc(C(F)(F)F)c1Cl` (stereo not drawn) [Example 245] the figure was 0.1 to 1 µM.
The same measure, in the same setting: the figure for `O=C(O)CC(NC(=O)c1cc(O)n(-c2ccccc2F)n1)c1cccc(Oc2ccc(Cl)cc2)c1` (stereo not drawn) [Example 246] is 0.1 to 1 µM.
For `COc1ccccc1[C@H](CC(=O)O)NC(=O)c1cc(O)n(-c2cccc(Cl)c2)n1` [Example 253], the IC50 lay in the range of 0.1 to 1 µM.
The same measure, in the same setting: the figure for `COc1ccc(C(CC(=O)O)NC(=O)c2cc(O)n(-c3ccccc3Cl)n2)c(OC)c1` (stereo not drawn) [Example 207] is 0.1 to 1 µM.

Still in this assay, the particulars now being: read-out: Activity (2): Cathepsin A inhibitory activity (IC50 class).
For `CC(C)C(C)(O)COc1cc(C(=O)N[C@@H](CC(=O)O)c2cccc(Cl)c2)nn1-c1ccccc1F` (stereo partly drawn) [Example 785, (S)-3-(3-Chloro-phenyl)-3-{[1-(2-fluoro-phenyl)-5-(2-hydroxy-2,3-dimethyl-butoxy)-1H-pyrazole-3-carbonyl]-amino}-propionic acid], the IC50 is under 0.1 µM.
Take `CC(C)(C)[C@@H](O)COc1cc(C(=O)N[C@@H](CC(=O)O)c2cccc(Cl)c2Cl)nn1-c1ccccc1F` [Example 776, (S)-3-(2,3-Dichloro-phenyl)-3-{[1-(2-fluoro-phenyl)-5-((R)-2-hydroxy-3,3-dimethyl-butoxy)-1H-pyrazole-3-carbonyl]-amino}-propionic acid]: the IC50 is under 0.1 µM.
On the same count and under the same terms, the figure for `O=C(O)C[C@H](NC(=O)c1cc(OCC2CC2)n(-c2ccccc2F)n1)c1ccc(Cl)cc1Cl` [Example 693] is 0.1 to 1 µM; for `COc1cc(-c2ccccc2)ccc1C(CC(=O)O)NC(=O)c1cc(O)n(-c2ccccc2Cl)n1` (stereo not drawn) [Example 558, 3-{[1-(2-Chloro-phenyl)-5-hydroxy-1H-pyrazole-3-carbonyl]-amino}-3-(3-methoxy-biphenyl-4-yl)-propionic acid] it is 0.1 to 1 µM; for `COc1cc(C(=O)NC(CC(=O)O)c2cc(Cl)ccc2Cl)nn1-c1ccccc1F` (stereo not drawn) [Example 683] it is under 0.1 µM.
On to `Cc1ccccc1[C@H](CC(=O)O)NC(=O)c1cc(OCc2ccccn2)n(-c2ccccc2F)n1` [Example 640], for which the 50% inhibitory concentration (IC50) was under 0.1 µM.
Turning to `O=C(O)C[C@H](NC(=O)c1cc(OCC2CC2)n(-c2ccccc2F)n1)c1ccccc1F` [Example 699], the IC50 lay within 0.1 to 1 µM.
In the case of `Cc1ccccc1[C@H](CC(=O)O)NC(=O)c1cc(OCc2ccccc2)n(-c2ccccc2F)n1` [Example 651], the IC50 was under 0.1 µM.
On the same count and under the same terms, with `O=C(O)CC(NC(=O)c1cc(O)n(-c2ccccc2)n1)c1ccc(N2CCCC2)cc1` (stereo not drawn) [Example 565, 3-[(5-Hydroxy-1-phenyl-1H-pyrazole-3-carbonyl)-amino]-3-(4-pyrrolidin-1-yl-phenyl)-propionic acid] the figure was 1 to 30 µM; with `CCOCCOCCOc1cc(C(=O)N[C@@H](CC(=O)O)c2ccccc2C)nn1-c1ccccc1F` [Example 637], under 0.1 µM; with `Cc1ccccc1[C@H](CC(=O)O)NC(=O)c1cc(OCC2CC2)n(-c2c(F)cccc2F)n1` [Example 634], under 0.1 µM.

Staying with this assay, now noted: read-out: Activity (2): Cathepsin A inhibitory activity, IC50 class.
In the case of `CC(C)(C)[C@](C)(O)COc1cc(C(=O)N[C@@H](CC(=O)O)c2ccccc2F)nn1-c1ccccc1F` [Example 883, (S)-3-(2-Fluoro-phenyl)-3-{[1-(2-fluoro-phenyl)-5-((S)-2-hydroxy-2,3,3-trimethyl-butoxy)-1H-pyrazole-3-carbonyl]-amino}-propionic acid], the IC50 is under 0.1 µM.
Still for that read-out and setting: with `O=C(O)CC(NC(=O)c1cc(O)n(-c2ccccc2)n1)c1ccc(-c2ccccc2)cc1` (stereo not drawn) [Example 69] the figure was 0.1 to 1 µM; with `Cc1cccc([C@H](CC(=O)O)NC(=O)c2cc(O)n(-c3ccc(F)cc3)n2)c1` [Example 354], 0.1 to 1 µM.
Still for that read-out and setting: the figure for `Cc1ccc(C)c(-n2nc(C(=O)NC(CC(=O)O)c3ccc(OC(F)(F)F)cc3)cc2O)c1` (stereo not drawn) [Example 31] is 1 to 30 µM.
On to `CCc1ccc(C(CC(=O)O)NC(=O)c2cc(O)n(-c3cc(C)ccc3C)n2)cc1` (stereo not drawn) [Example 41], for which the IC50 fell in the range of 1 to 30 µM.
Still for that read-out and setting: the figure for `Cc1cccc(C(CC(=O)O)NC(=O)c2cc(O)n(-c3ccccc3)n2)c1C` (stereo not drawn) [Example 377] is 0.1 to 1 µM; for `O=C(O)CC(NC(=O)c1cc(O)n(-c2cccc(F)c2)n1)c1cccc2c1OCO2` (stereo not drawn) [Example 300] it is 0.1 to 1 µM; for `O=C(O)CC(NC(=O)c1cc(O)n(-c2ccccc2)n1)c1ccccc1Cl` (stereo not drawn) [Example 20] it is 0.1 to 1 µM.
`Cc1ccc(C(CC(=O)O)NC(=O)c2cc(O)n(-c3ccccc3)n2)c(C)c1` (stereo not drawn) [Example 84]: the IC50 fell in the range of 0.1 to 1 µM.
Same read-out and setting: the figure for `Cc1ccc(C)c(-n2nc(C(=O)NC(CC(=O)O)c3cc(F)cc(F)c3)cc2O)c1` (stereo not drawn) [Example 56] is 1 to 30 µM; for `O=C(O)CC(NC(=O)c1cc(O)n(-c2ccccc2F)n1)c1ccc(-n2ccnc2)cc1` (stereo not drawn) [Example 127] it is 1 to 30 µM; for `O=C(O)CC(NC(=O)c1cc(O)n(-c2ccccc2)n1)c1ccc(Oc2ccccc2)cc1` (stereo not drawn) [Example 102] it is 0.1 to 1 µM.

The assay is the same for the next values; noted with them: recombinant human cathepsin A 833 ng/ml, Bodipy FL-labeled bradykinin 2 μM, pH 5.5; read-out: CATH-A IC50.
In the case of `O=C(O)CC(NC(=O)c1cc(O)n(-c2ccccc2Cl)n1)c1cc(F)ccc1C(F)(F)F` (stereo not drawn) [Example 460, 3-{[1-(2-Chloro-phenyl)-5-hydroxy-1H-pyrazole-3-carbonyl]-amino}-3-(5-fluoro-2-trifluoromethyl-phenyl)-propionic acid], the 50% inhibitory concentration (IC50) is 0.118 µM.
Regarding `COc1cc(-c2ccccc2)ccc1C(CC(=O)O)NC(=O)c1cc(O)n(-c2ccccc2Cl)n1` (stereo not drawn) [Example 558, 3-{[1-(2-Chloro-phenyl)-5-hydroxy-1H-pyrazole-3-carbonyl]-amino}-3-(3-methoxy-biphenyl-4-yl)-propionic acid], the 50% inhibitory concentration (IC50) is 0.699 µM.
The same measure, in the same setting: the figure for `O=C(O)CC(NC(=O)c1cc(O)n(-c2ccc(F)cc2F)n1)c1cc(Cl)ccc1Cl` (stereo not drawn) [Example 500, 3-(2,5-Dichloro-phenyl)-3-{[1-(2,4-difluoro-phenyl)-5-hydroxy-1H-pyrazole-3-carbonyl]-amino}-propionic acid] is 0.0863 µM; for `O=C(O)CC(NC(=O)c1cc(O)n(-c2ccc(Cl)cc2)n1)c1cccc2c1OC(F)(F)O2` (stereo not drawn) [Example 471, 3-{[1-(4-Chloro-phenyl)-5-hydroxy-1H-pyrazole-3-carbonyl]-amino}-3-(2,2-difluoro-benzo[1,3]dioxol-4-yl)-propionic acid] it is 0.486 µM.
On to `COc1cccc(F)c1C(CC(=O)O)NC(=O)c1cc(O)n(-c2ccc(F)cc2F)n1` (stereo not drawn) [Example 449, 3-{[1-(2,4-Difluoro-phenyl)-5-hydroxy-1H-pyrazole-3-carbonyl]-amino}-3-(2-fluoro-6-methoxy-phenyl)-propionic acid], for which the IC50 is 0.176 µM.
Consider `O=C(O)CC(NC(=O)c1cc(O)n(-c2ccccc2)n1)c1cccc2c1OC(F)(F)O2` (stereo not drawn) [Example 496, 3-(2,2-Difluoro-benzo[1,3]dioxol-4-yl)-3-[(5-hydroxy-1-phenyl-1H-pyrazole-3-carbonyl)-amino]-propionic acid], for which the IC50 was 0.167 µM.
As for `O=C(O)C[C@H](NC(=O)c1cc(O)n(-c2ccccc2)n1)c1ccccc1Cl` [Example 446, (S)-3-(2-Chloro-phenyl)-3-[(5-hydroxy-1-phenyl-1H-pyrazole-3-carbonyl)-amino]-propionic acid], the IC50 was 0.12 µM.
Regarding `O=C(O)CC(NC(=O)c1cc(O)n(-c2ccccc2)n1)c1ccc(N2CCCC2)cc1` (stereo not drawn) [Example 565, 3-[(5-Hydroxy-1-phenyl-1H-pyrazole-3-carbonyl)-amino]-3-(4-pyrrolidin-1-yl-phenyl)-propionic acid], the IC50 was 5.02 µM.

The assay is the same for the next values; noted with them: recombinant human cathepsin A; read-out: Activity (2): Cathepsin A inhibitory activity, IC50 class.
Take `O=C(O)CC(NC(=O)c1cc(O)n(-c2ccccc2Cl)n1)c1cc(F)ccc1C(F)(F)F` (stereo not drawn) [Example 460, 3-{[1-(2-Chloro-phenyl)-5-hydroxy-1H-pyrazole-3-carbonyl]-amino}-3-(5-fluoro-2-trifluoromethyl-phenyl)-propionic acid]: the IC50 is 0.1 to 1 µM.
On to `COc1cccc([C@H](CC(=O)O)NC(=O)c2cc(O)n(-c3cccc(Cl)c3)n2)c1OC` [Example 417], for which the half-inhibitory concentration (IC50) lay in the range of 0.1 to 1 µM.
With `COc1cc(C(=O)N[C@@H](CC(=O)NCc2nnn[nH]2)c2ccccc2C)nn1-c1ccccc1F` [Example 928], the IC50 is 0.1 to 1 µM.
Regarding `O=C(O)CC(NC(=O)c1cc(O)n(-c2ccc(F)cc2F)n1)c1cc(Cl)ccc1Cl` (stereo not drawn) [Example 500, 3-(2,5-Dichloro-phenyl)-3-{[1-(2,4-difluoro-phenyl)-5-hydroxy-1H-pyrazole-3-carbonyl]-amino}-propionic acid], the IC50 was under 0.1 µM.
Turning to `O=C(O)CC(NC(=O)c1cc(O)n(-c2ccc(Cl)cc2)n1)c1cccc2c1OC(F)(F)O2` (stereo not drawn) [Example 471, 3-{[1-(4-Chloro-phenyl)-5-hydroxy-1H-pyrazole-3-carbonyl]-amino}-3-(2,2-difluoro-benzo[1,3]dioxol-4-yl)-propionic acid], the IC50 fell in the range of 0.1 to 1 µM.
Regarding `COc1cccc(F)c1C(CC(=O)O)NC(=O)c1cc(O)n(-c2ccc(F)cc2F)n1` (stereo not drawn) [Example 449, 3-{[1-(2,4-Difluoro-phenyl)-5-hydroxy-1H-pyrazole-3-carbonyl]-amino}-3-(2-fluoro-6-methoxy-phenyl)-propionic acid], the IC50 was in the range of 0.1 to 1 µM.
In the case of `COc1cc(C(=O)N[C@@H](CC(=O)NCC#N)c2ccccc2C)nn1-c1ccccc1F` [Example 926, 1-(2-Fluoro-phenyl)-5-methoxy-1H-pyrazole-3-carboxylic acid [(S)-2-(cyanomethyl-carbamoyl)-1-o-tolyl-ethyl]-amide], the IC50 lay in the range of 1 to 30 µM.
The same measure, in the same setting: the figure for `O=C(O)CC(NC(=O)c1cc(O)n(-c2ccccc2)n1)c1cccc2c1OC(F)(F)O2` (stereo not drawn) [Example 496, 3-(2,2-Difluoro-benzo[1,3]dioxol-4-yl)-3-[(5-hydroxy-1-phenyl-1H-pyrazole-3-carbonyl)-amino]-propionic acid] is 0.1 to 1 µM; for `O=C(O)C[C@H](NC(=O)c1cc(O)n(-c2ccccc2)n1)c1ccccc1Cl` [Example 446, (S)-3-(2-Chloro-phenyl)-3-[(5-hydroxy-1-phenyl-1H-pyrazole-3-carbonyl)-amino]-propionic acid] it is 0.1 to 1 µM.
For `Cc1c(F)cccc1C(CC(=O)O)NC(=O)c1cc(O)n(-c2cccc(F)c2)n1` (stereo not drawn) [Example 482], the concentration for half-maximal inhibition (IC50) is 0.1 to 1 µM.
The same measure, in the same setting: the figure for `O=C(O)CC(NC(=O)c1cc(O)n(-c2ccccc2)n1)c1ccccc1Oc1ccccc1` (stereo not drawn) [Example 442] is 1 to 30 µM.
Turning to `O=C(O)CC(NC(=O)c1cc(O)n(-c2ccc(F)cc2)n1)c1cc(F)ccc1Cl` (stereo not drawn) [Example 524, 3-(2-Chloro-5-fluoro-phenyl)-3-{[1-(4-fluoro-phenyl)-5-hydroxy-1H-pyrazole-3-carbonyl]-amino}-propionic acid], the IC50 lay in the range of 0.1 to 1 µM.
Same read-out and setting: with `Cc1ccccc1[C@H](CC(=O)O)NC(=O)c1cc(O)n(Cc2ccccc2)n1` [Example 533] the figure was 0.1 to 1 µM.
Still for that read-out and setting: the figure for `Cc1ccccc1[C@H](CC(=O)O)NC(=O)c1cc(O)n(-c2ccccc2C(F)(F)F)n1` [Example 537] is 0.1 to 1 µM.
